Key:
Type in all cases: in vivo
[1] = tested on: barnyardgrass (Echinachloa crus-galli, ECC); experiment: Post-emerge test, barnyardgrass; conditions: 250 g ai/ha, 14 days after application, rating scale 0-100 (0 no damage, 100 complete death)
In short: (§1)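 Greenhouse pot plants in sandy loam were sown 8-21 days before treatment and sprayed at about the 2-3 leaf stage. The spray was acetone solution plus 0.25% v/v non-ionic surfactant, 187 l/ha, at 8-1000 g ai/ha from a track sprayer. Phytotoxicity was scored 0-100 (0 no damage, 100 all plants dead) 14 days later.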

[2] = tested on: ivyleaf morningglory (Ipomoea hederacea, IPH); experiment: Pre-emerge test, ivyleaf morningglory; conditions: 250 g ai/ha, 14 days after application, rating scale 0-100 (0 no damage, 100 complete death)
In short: (§2)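 Sandy loam soil mix, 10 cm pots, sowing 1 d before treatment; spray volume 187 l/ha, rates 8–1000 g ai/ha in acetone; 0–100 visual rating at 14 d.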

[3] = tested on: redroot pigweed (Amaranthus retroflexus, AMR); experiment: Post-emerge test, redroot pigweed; conditions: 250 g ai/ha, 14 days after application, rating scale 0-100 (0 no damage, 100 complete death)
In short: as §1

[4] = tested on: sicklepod (Cassia obtusifolia, CAO); experiment: Pre-emerge test, sicklepod; conditions: 250 g ai/ha, 14 days after application, rating scale 0-100 (0 no damage, 100 complete death)
In short: as §2

[5] = tested on: large crabgrass (Digitaria sanguinalis, DIS); experiment: Pre-emerge test, large crabgrass; conditions: 250 g ai/ha, 14 days after application, rating scale 0-100 (0 no damage, 100 complete death)
In short: as §2

[6] = tested on: common ragweed (Ambrosia artemisiifolia L., AML); experiment: Post-emerge test, common ragweed; conditions: 250 g ai/ha, 14 days after application, rating scale 0-100 (0 no damage, 100 complete death)
In short: as §1

[7] = tested on: green foxtail (Setaria viridis, SEV); experiment: Post-emerge test, green foxtail; conditions: 250 g ai/ha, 14 days after application, rating scale 0-100 (0 no damage, 100 complete death)
In short: as §1

[8] = tested on: lambsquarters (Chenopodium album, CHA); experiment: Post-emerge test, lambsquarters; conditions: 250 g ai/ha, 14 days after application, rating scale 0-100 (0 no damage, 100 complete death)
In short: as §1

[9] = tested on: green foxtail (Setaria viridis, SEV); experiment: Pre-emerge test, green foxtail; conditions: 250 g ai/ha, 14 days after application, rating scale 0-100 (0 no damage, 100 complete death)
In short: as §2

[10] = tested on: common ragweed (Ambrosia artemisiifolia L., AML); experiment: Pre-emerge test, common ragweed; conditions: 250 g ai/ha, 14 days after application, rating scale 0-100 (0 no damage, 100 complete death)
In short: as §2

[11] = tested on: barnyardgrass (Echinachloa crus-galli, ECC); experiment: Pre-emerge test, barnyardgrass; conditions: 250 g ai/ha, 14 days after application, rating scale 0-100 (0 no damage, 100 complete death)
In short: as §2

[12] = tested on: field corn (Zea mays L., var. Dekalb 535, CORN); experiment: Post-emerge test, crop damage field corn; conditions: post-emerge, 250 g ai/ha, 14 days after application, rating scale 0-100 (0 no damage, 100 complete death)
In short: as §1

[13] = tested on: lambsquarters (Chenopodium album, CHA); experiment: Pre-emerge test, lambsquarters; conditions: 250 g ai/ha, 14 days after application, rating scale 0-100 (0 no damage, 100 complete death)
In short: as §2

[14] = tested on: johnsongrass (Sorghum halepense, SOH); experiment: Post-emerge test, johnsongrass; conditions: 250 g ai/ha, 14 days after application, rating scale 0-100 (0 no damage, 100 complete death)
In short: as §1

[15] = tested on: velvetleaf (Abutilon theophrasti, ABT); experiment: Post-emerge test, velvetleaf; conditions: 250 g ai/ha, 14 days after application, rating scale 0-100 (0 no damage, 100 complete death)
In short: as §1

[16] = tested on: redroot pigweed (Amaranthus retroflexus, AMR); experiment: Pre-emerge test, redroot pigweed; conditions: 250 g ai/ha, 14 days after application, rating scale 0-100 (0 no damage, 100 complete death)
In short: as §2

[17] = tested on: upland rice (Oryza sp., var.Tebonnet, RICE); experiment: Post-emerge test, crop damage upland rice; conditions: post-emerge, 250 g ai/ha, 14 days after application, rating scale 0-100 (0 no damage, 100 complete death)
In short: as §1

[18] = tested on: johnsongrass (Sorghum halepense, SOH); experiment: Pre-emerge test, johnsongrass; conditions: 250 g ai/ha, 14 days after application, rating scale 0-100 (0 no damage, 100 complete death)
In short: as §2

[19] = tested on: soybean (Glycine max L., var. Pella 86, SOY); experiment: Pre-emerge test, crop damage soybean; conditions: pre-emerge, 250 g ai/ha, 14 days after application, rating scale 0-100 (0 no damage, 100 complete death)
In short: as §2

[20] = tested on: sicklepod (Cassia obtusifolia, CAO); experiment: Post-emerge test, sicklepod; conditions: 250 g ai/ha, 14 days after application, rating scale 0-100 (0 no damage, 100 complete death)
In short: as §1

[21] = tested on: ivyleaf morningglory (Ipomoea hederacea, IPH); experiment: Post-emerge test, ivyleaf morningglory; conditions: 250 g ai/ha, 14 days after application, rating scale 0-100 (0 no damage, 100 complete death)
In short: as §1

[22] = tested on: upland rice (Oryza sp., var.Tebonnet, RICE); experiment: Pre-emerge test, crop damage upland rice; conditions: pre-emerge, 250 g ai/ha, 14 days after application, rating scale 0-100 (0 no damage, 100 complete death)
In short: as §2

[23] = tested on: velvetleaf (Abutilon theophrasti, ABT); experiment: Pre-emerge test, velvetleaf; conditions: 250 g ai/ha, 14 days after application, rating scale 0-100 (0 no damage, 100 complete death)
In short: as §2

[24] = tested on: large crabgrass (Digitaria sanguinalis, DIS); experiment: Post-emerge test, large crabgrass; conditions: 250 g ai/ha, 14 days after application, rating scale 0-100 (0 no damage, 100 complete death)
In short: as §1

[25] = tested on: cocklebur (Xanthium strumariunt, XAS); experiment: Post-emerge test, cocklebur; conditions: 250 g ai/ha, 14 days after application, rating scale 0-100 (0 no damage, 100 complete death)
In short: as §1

[26] = tested on: cocklebur (Xanthium strumariunt, XAS); experiment: Pre-emerge test, cocklebur; conditions: 250 g ai/ha, 14 days after application, rating scale 0-100 (0 no damage, 100 complete death)
In short: as §2

[27] = tested on: soybean (Glycine max L., var. Pella 86, SOY); experiment: Post-emerge test, crop damage soybean; conditions: post-emerge, 250 g ai/ha, 14 days after application, rating scale 0-100 (0 no damage, 100 complete death)
In short: as §1

[28] = tested on: wheat (Triticum aestivum); experiment: Pre-emerge test, crop damage wheat; conditions: pre-emerge, 250 g ai/ha, 14 days after application, rating scale 0-100 (0 no damage, 100 complete death)
In short: as §2

[29] = tested on: wheat (Triticum aestivum); experiment: Post-emerge test, crop damage wheat; conditions: post-emerge, 250 g ai/ha, 14 days after application, rating scale 0-100 (0 no damage, 100 complete death)
In short: as §1

[30] = tested on: field corn (Zea mays L., var. Dekalb 535, CORN); experiment: Pre-emerge test, crop damage field corn; conditions: pre-emerge, 250 g ai/ha, 14 days after application, rating scale 0-100 (0 no damage, 100 complete death)
In short: as §2

| SMILES | Post-emerge Herbicidal Activity ECC (phytotoxicity rating) [1] | Pre-emerge Herbicidal Activity IPH (phytotoxicity rating) [2] | Post-emerge Herbicidal Activity AMR (phytotoxicity rating) [3] | Pre-emerge Herbicidal Activity CAO (phytotoxicity rating) [4] | Pre-emerge Herbicidal Activity DIS (phytotoxicity rating) [5] | Post-emerge Herbicidal Activity AML (phytotoxicity rating) [6] | Post-emerge Herbicidal Activity SEV (phytotoxicity rating) [7] | Post-emerge Herbicidal Activity CHA (phytotoxicity rating) [8] | Pre-emerge Herbicidal Activity SEV (phytotoxicity rating) [9] | Pre-emerge Herbicidal Activity AML (phytotoxicity rating) [10] | Pre-emerge Herbicidal Activity ECC (phytotoxicity rating) [11] | Post-emerge crop damage CORN (phytotoxicity rating) [12] | Pre-emerge Herbicidal Activity CHA (phytotoxicity rating) [13] | Post-emerge Herbicidal Activity SOH (phytotoxicity rating) [14] | Post-emerge Herbicidal Activity ABT (phytotoxicity rating) [15] | Pre-emerge Herbicidal Activity AMR (phytotoxicity rating) [16] | Post-emerge crop damage RICE (phytotoxicity rating) [17] | Pre-emerge Herbicidal Activity SOH (phytotoxicity rating) [18] | Pre-emerge crop damage SOY (phytotoxicity rating) [19] | Post-emerge Herbicidal Activity CAO (phytotoxicity rating) [20] | also measured |
| --- | --- | --- | --- | --- | --- | --- | --- | --- | --- | --- | --- | --- | --- | --- | --- | --- | --- | --- | --- | --- | --- |
| O=C1Nc2c(-c3ncc(C(F)(F)F)cc3Cl)c(F)cc3c2N(C(=O)CO3)C1c1ccccc1 (stereo not drawn) [1-68] | 0 | 40 | 100 | 40 | 100 | 40 | 0 | 100 | 100 | 65 | 98 | 10 | 100 | 0 | 80 | 100 | 0 | 99 | 5 | 0 | Post-emerge Herbicidal Activity IPH (phytotoxicity rating) [21]: 60; Pre-emerge crop damage RICE (phytotoxicity rating) [22]: 0; Pre-emerge Herbicidal Activity ABT (phytotoxicity rating) [23]: 99; Post-emerge Herbicidal Activity DIS (phytotoxicity rating) [24]: 0; Post-emerge Herbicidal Activity XAS (phytotoxicity rating) [25]: 60; Pre-emerge Herbicidal Activity XAS (phytotoxicity rating) [26]: 30; Post-emerge crop damage SOY (phytotoxicity rating) [27]: 10; Pre-emerge crop damage WHEAT (phytotoxicity rating) [28]: 30; Post-emerge crop damage WHEAT (phytotoxicity rating) [29]: 0; Pre-emerge crop damage CORN (phytotoxicity rating) [30]: 5 |
| Cn1nc(-c2c(F)cc3c4c2NC(=O)C(c2ccccc2)N4C(=O)CO3)c(Cl)c1C(F)(F)F (stereo not drawn) [1-21] | 25 | 95 | 95 | 60 | 99 | 75 | 50 | 99 | 98 | 98 | 75 | 10 | 100 | 0 | 75 | 100 | 55 | 85 | 35 | 5 | Post-emerge Herbicidal Activity IPH (phytotoxicity rating) [21]: 75; Pre-emerge crop damage RICE (phytotoxicity rating) [22]: 0; Pre-emerge Herbicidal Activity ABT (phytotoxicity rating) [23]: 100; Post-emerge Herbicidal Activity DIS (phytotoxicity rating) [24]: 0; Post-emerge Herbicidal Activity XAS (phytotoxicity rating) [25]: 80; Pre-emerge Herbicidal Activity XAS (phytotoxicity rating) [26]: 40; Post-emerge crop damage SOY (phytotoxicity rating) [27]: 25; Pre-emerge crop damage WHEAT (phytotoxicity rating) [28]: 20; Post-emerge crop damage WHEAT (phytotoxicity rating) [29]: 45; Pre-emerge crop damage CORN (phytotoxicity rating) [30]: 0 |
| CCC1C(=O)Nc2c(-c3nn(C)c(OC(F)F)c3Cl)c(F)cc3c2N1C(=O)C(C)(C)O3 (stereo not drawn) [1-61] | 35 | 98 | 75 | 65 | 98 | 60 | 85 | 99 | 100 | 80 | 99 | 3 | 100 | 20 | 98 | 100 | 30 | 100 | 25 | 30 | Post-emerge Herbicidal Activity IPH (phytotoxicity rating) [21]: 100; Pre-emerge crop damage RICE (phytotoxicity rating) [22]: 10; Pre-emerge Herbicidal Activity ABT (phytotoxicity rating) [23]: 100; Post-emerge Herbicidal Activity DIS (phytotoxicity rating) [24]: 0; Post-emerge Herbicidal Activity XAS (phytotoxicity rating) [25]: 90; Pre-emerge Herbicidal Activity XAS (phytotoxicity rating) [26]: 60; Post-emerge crop damage SOY (phytotoxicity rating) [27]: 25; Pre-emerge crop damage WHEAT (phytotoxicity rating) [28]: 15; Post-emerge crop damage WHEAT (phytotoxicity rating) [29]: 30; Pre-emerge crop damage CORN (phytotoxicity rating) [30]: 0 |
